The test system of data set [1] is B054 cells (baboon smooth muscle cells). Briefly: cells. The conditions noted are these: for minimal effective concentration: Papio anubis. It is filed as cell-based.
Data set [2] deals with Vascular smooth muscle cells.
The test system of data set [3] is B054 cells (baboon smooth muscle cells). The data set can be described thus: cells. Type of data set: cell-based. To be noted: Papio anubis, read-out: minimum effective dose (MED), protein synthesis assay.
The next data set relates to Quiescent ED cells. The data set can be described thus: Stimulation of DNA synthesis by mitogens in quiescent ED cells. It is filed as cell-based, human. To be noted: [3H]thymidine 16-40 h after stimulation, vs serum-free control; 20% FCS. Here is the method:
Quiescent ED cells were exposed to various mitogens, and stimulation of DNA synthesis was determined by [^3H]thymidine incorporation 16-40 h after stimulation. DNA synthesis was stimulated by 20% FCS by 25±6 fold, compared to control cells that remained in serum-free D-MEM throughout. PDGF-BB stimulated ≈3.0 fold, but PDGF-AA stimulated only 2.0 fold.

Another data set concerns Quiescent EX cells. Briefly: Stimulation of DNA synthesis by mitogens in quiescent EX cells. The conditions noted are these: [3H]thymidine 16-32 h after stimulation, vs serum-free control; 20% FCS, IGF-1 25 ng/ml, EGF and bFGF 100 ng/ml, TGF-beta 10 ng/ml, AII and ET-1 100 nM. It is filed as cell-based, human. As for the experimental part:
Quiescent EX cells were then exposed to various mitogens, and stimulation of DNA synthesis was determined by incorporation of [^3H]thymidine 16-32 h after stimulation. DNA synthesis was stimulated by 20% FCS by 8.0±1.5 fold, compared to control cells that remained in serum-free D-MEM throughout. PDGF-BB and PDGF-AA caused a ≈ 3.0 fold stimulation of DNA synthesis. Insulin-like growth factor (IGF-1; 25 ng/ml) provided a 1.2 fold stimulation.

Read-outs that look alike come from different tables or passages of the source. Ends that are not written are not given here.

Regarding `CC(=O)O[C@@H]1/C=C\[C@@](C)(O)C(=O)[C@@H](C)C/C=C\[C@H]2[C@H](O)C(C)=C(C)[C@H]3C(Cc4ccccc4)NC(=O)[C@]132` (stereo partly shown) [cytochalasin C], in data set [1], the “minimum effective dose (MED), DNA synthesis assay” value was found to be 0.01 µg/mL.
For `CN[C@@H]1C[C@H]2O[C@@](C)([C@@H]1OC)n1c3ccccc3c3c4c(c5c6ccccc6n2c5c31)C(=O)NC4` [staurosporin], the cytotoxicity grade in data set [2] is 2. The minimal effective concentration in data set [3] (5 min) stood at 0.1 µg/mL; in data set [3] (24 h), 0.01 µg/mL; in data set [1] (5 min, read-out: minimum effective dose (MED), DNA assay) it was 0.001 µg/mL; in data set [1] (24 h, read-out: minimum effective dose (MED), DNA synthesis assay) it was 0.001 µg/mL.
On to `CC[C@H](C)[C@H](NC(=O)[C@H](Cc1ccc(O)cc1)NC(=O)[C@@H](NC(=O)[C@H](CCCNC(=N)N)NC(=O)[C@@H](N)CC(=O)O)C(C)C)C(=O)N[C@@H](Cc1cnc[nH]1)C(=O)N1CCC[C@H]1C(=O)N[C@@H](Cc1ccccc1)C(=O)O` [AII, angiotensin II], for which the “stimulation of DNA synthesis” value in the data set with Quiescent ED cells is given as “did not stimulate DNA synthesis”; in the data set on Quiescent EX cells, “did not significantly stimulate DNA synthesis”.
For the molecule “endothelin-1 (CSCSSLMDKECVYFCHLDIIW; ends and bridges not checked; cysteine pairing not given here; UniProt P05305 53-73, looked up) [ET-1]”, the “stimulation of DNA synthesis” value in the data set with Quiescent ED cells is “did not stimulate DNA synthesis”; in the data set on Quiescent EX cells, “did not significantly stimulate DNA synthesis”.

Values taken from patent EP1510220B1 (priority 1993, dated 1994).
